Experimental data as given in ChEMBL document CHEMBL1125095, “Conformational analysis and structure-activity relationships of selective dopamine D-1 receptor agonists and antagonists of the benzazepine series” (J Med Chem, 1990).
Blank lines part the entries; values can stand above or below the compound they belong to.

What was measured:
Adenylate cyclase type 5 [1] = target: T1, Adenylate cyclase type 5 (Homo sapiens, UniProt O95622); test: Effective concentration required to stimulate Adenylate cyclase; Inactive
Target sequence in this assay (O95622 whole entry): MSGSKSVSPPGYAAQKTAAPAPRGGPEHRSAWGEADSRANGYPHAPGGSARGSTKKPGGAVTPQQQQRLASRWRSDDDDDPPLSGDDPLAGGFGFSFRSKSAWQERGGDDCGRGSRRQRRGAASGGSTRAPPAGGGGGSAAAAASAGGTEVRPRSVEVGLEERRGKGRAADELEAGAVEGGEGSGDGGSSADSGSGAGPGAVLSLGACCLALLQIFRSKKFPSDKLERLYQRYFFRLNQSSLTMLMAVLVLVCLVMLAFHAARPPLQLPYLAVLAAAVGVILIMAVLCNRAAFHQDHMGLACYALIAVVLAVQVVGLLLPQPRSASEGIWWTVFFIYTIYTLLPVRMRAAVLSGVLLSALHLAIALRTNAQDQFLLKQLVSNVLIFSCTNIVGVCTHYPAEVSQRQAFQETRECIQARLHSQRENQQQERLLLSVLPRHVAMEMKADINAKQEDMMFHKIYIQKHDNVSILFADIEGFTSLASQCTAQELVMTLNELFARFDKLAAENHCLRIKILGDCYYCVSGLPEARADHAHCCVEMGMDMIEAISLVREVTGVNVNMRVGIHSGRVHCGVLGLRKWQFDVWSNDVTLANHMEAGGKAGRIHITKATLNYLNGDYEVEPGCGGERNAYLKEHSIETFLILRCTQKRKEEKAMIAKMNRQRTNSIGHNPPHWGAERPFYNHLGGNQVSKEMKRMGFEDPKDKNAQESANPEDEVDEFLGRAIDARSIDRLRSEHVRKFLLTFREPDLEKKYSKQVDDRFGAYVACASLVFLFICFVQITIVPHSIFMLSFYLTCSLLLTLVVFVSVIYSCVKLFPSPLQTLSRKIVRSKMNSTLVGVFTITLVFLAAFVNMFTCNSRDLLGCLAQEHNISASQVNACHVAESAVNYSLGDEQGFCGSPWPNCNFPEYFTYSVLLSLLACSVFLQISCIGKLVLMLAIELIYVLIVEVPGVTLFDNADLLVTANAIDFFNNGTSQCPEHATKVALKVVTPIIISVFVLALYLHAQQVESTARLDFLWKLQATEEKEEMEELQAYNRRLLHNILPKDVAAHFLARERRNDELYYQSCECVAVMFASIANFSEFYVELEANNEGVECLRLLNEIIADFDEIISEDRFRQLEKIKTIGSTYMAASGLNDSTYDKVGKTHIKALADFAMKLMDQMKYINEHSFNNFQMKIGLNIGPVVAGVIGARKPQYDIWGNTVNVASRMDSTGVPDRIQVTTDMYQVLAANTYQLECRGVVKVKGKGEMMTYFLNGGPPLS

D(1A) dopamine receptor [2] = target: D(1A) dopamine receptor (Rattus norvegicus, UniProt P18901); test: Binding affinity against Dopamine receptor D1 in rat radioligand
Sequence of D(1A) dopamine receptor (Rattus norvegicus, UniProt P18901) (P18901 whole entry): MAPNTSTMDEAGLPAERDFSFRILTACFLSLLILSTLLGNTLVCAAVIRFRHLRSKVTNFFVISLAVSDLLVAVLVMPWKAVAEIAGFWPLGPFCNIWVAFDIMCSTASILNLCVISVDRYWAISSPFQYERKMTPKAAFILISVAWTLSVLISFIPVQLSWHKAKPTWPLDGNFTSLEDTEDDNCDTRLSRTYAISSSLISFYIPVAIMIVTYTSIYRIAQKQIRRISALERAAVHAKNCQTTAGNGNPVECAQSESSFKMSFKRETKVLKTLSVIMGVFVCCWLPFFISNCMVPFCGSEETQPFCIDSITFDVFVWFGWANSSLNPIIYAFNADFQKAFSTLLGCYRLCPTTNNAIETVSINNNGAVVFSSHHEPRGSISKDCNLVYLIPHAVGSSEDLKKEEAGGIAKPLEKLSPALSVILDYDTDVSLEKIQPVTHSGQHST

Adenylate cyclase type 5 [3] = target: T1, Adenylate cyclase type 5; test: Effective dose required to stimulate Adenylate cyclase
Target sequence in this assay (O95622 whole entry, looked up): as the sequence (O95622 whole entry) above

D(1A) dopamine receptor [4] = target: T2, D(1A) dopamine receptor (Homo sapiens, UniProt P21728); test: Binding affinity to displace [3H]- SCH 23390 against Dopamine receptor D1
T2 sequence (P21728 whole entry): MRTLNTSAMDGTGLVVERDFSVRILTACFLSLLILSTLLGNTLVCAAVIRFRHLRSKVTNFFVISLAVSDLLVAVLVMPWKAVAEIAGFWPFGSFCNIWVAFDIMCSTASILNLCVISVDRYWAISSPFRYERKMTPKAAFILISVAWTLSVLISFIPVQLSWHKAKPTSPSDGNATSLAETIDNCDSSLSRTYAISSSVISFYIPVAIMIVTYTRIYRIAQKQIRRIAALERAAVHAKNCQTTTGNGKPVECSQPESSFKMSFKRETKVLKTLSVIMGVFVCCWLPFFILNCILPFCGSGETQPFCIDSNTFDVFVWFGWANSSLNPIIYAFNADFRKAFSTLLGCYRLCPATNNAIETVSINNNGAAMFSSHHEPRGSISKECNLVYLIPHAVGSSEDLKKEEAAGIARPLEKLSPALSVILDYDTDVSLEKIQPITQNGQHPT

D(1A) dopamine receptor [5] = target: T2, D(1A) dopamine receptor; test: Binding affinity to displace [3H]-SCH- 23390 against Dopamine receptor D1
Adenylate cyclase type 5 [6] = target: T1, Adenylate cyclase type 5; test: Effective concentration required to stimulate Adenylate cyclase
Target sequence in this assay (O95622 whole entry, looked up): as the sequence (O95622 whole entry) above

Structure (SMILES): Oc1cc2c3c(c1O)CC[C@@H]3CNC[C@@H]2c1ccccc1
Ki (D(1A) dopamine receptor [2]): 24 nM | ED50 (Adenylate cyclase type 5 [3]): 430 nM

Structure (SMILES): Cc1ccccc1[C@H]1CN(C)CCc2cc(Cl)c(O)cc21
Ki (D(1A) dopamine receptor [4]): 0.8 nM

Structure (SMILES): CN1CCc2cc(Cl)c(O)cc2[C@@H](c2cccc3ccoc23)C1
Ki (D(1A) dopamine receptor [5]): 6 nM

Structure (SMILES): Cc1ccc([C@H]2CN(C)CCc3cc(Cl)c(O)cc32)cc1
Ki (D(1A) dopamine receptor [4]): 1.6 nM

Structure (SMILES): Oc1cc2c3c(c1O)CC[C@H]3CNC[C@@H]2c1ccccc1
Ki (D(1A) dopamine receptor [2]): 1220 nM | Control (Adenylate cyclase type 5 [3]): 20%

Structure (SMILES): Cc1cccc([C@H]2CN(C)CCc3cc(Cl)c(O)cc32)c1
Ki (D(1A) dopamine receptor [4]): 0.4 nM

Structure (SMILES): CN1CCc2cc(Cl)c(O)cc2[C@H]2c3ccccc3C[C@@H]21
Ki (D(1A) dopamine receptor [4]): 7 nM

Results, then the compound that gave them:

EC50 (Adenylate cyclase type 5 [1]): Not Active
Structure (SMILES): Cc1ccccc1[C@H]1CNCCc2cc(O)c(O)cc21

EC50 (Adenylate cyclase type 5 [1]): Not Active
Structure (SMILES): Cc1c(O)c(O)cc2c1[C@@H](c1ccccc1)CNCC2

ED50 (Adenylate cyclase type 5 [3]): 63 nM
Structure (SMILES): Oc1cc2c(cc1O)[C@@H](c1ccccc1)CNCC2

Response (Adenylate cyclase type 5 [6]): 71%
Structure (SMILES): Cc1cccc([C@H]2CNCCc3cc(O)c(O)cc32)c1
